Data: patent US20190187129A1, “CANCER MODELING PLATFORMS AND METHODS OF USING THE SAME” (Wake Forest University Health Sciences, priority 2016, published 2019)
“Also recorded” adds a separate entry of the source.

What was measured:
[1] = system: liver, cardiac, lung, testis, and brain organoids; assay: 5 organoid integrated drug screening in a miniaturized microfluidic platform, live/dead staining; assay type: cell-based; conditions: miniaturized system, 20 uM
Experimental: (§1) Design and Results of Experiments: Adhesive film-based microfluidic platforms were fabricated as described below. As with the full-scale platform described in Example 4, five tissue constructs were initiated containing liver, cardiac, lung, testis, and brain organoids and maintained for 7 days prior to the start of the drug study. At this point, the liver modules were removed from half of the platforms. Capecitabine (20 uM) was administered to all platforms after which viability was assessed through live/dead staining or cardiac beating behavior after 7 days of exposure (day 14 of total study).
FIG. 14 provides an overview of this fabrication methodology.

[2] = system: liver, cardiac, lung, testis, and brain organoids; assay: 5 organoid integrated drug screening (standard size platform), live/dead staining; assay type: cell-based; conditions: 20 uM
Experimental: as §1, with “Five tissue” for “Adhesive film-based microfluidic”, “platforms” for “platforms were fabricated as described below. As with the full-scale platform described in Example 4, five tissue constructs”

[3] = 7 days of exposure, with liver present
[4] = 7 days of exposure, without liver

**Q.** How did the “brain organoid viability (LIVE/DEAD)” value ([1]; 7 days of exposure) turn out when CCCCCOC(=O)Nc1nc(=O)n([C@@H]2O[C@H](C)[C@@H](O)[C@H]2O)cc1F [capecitabine] was run?
**A.** brain organoid viability is high

**Q.** What about the “cardiac and lung organoid toxicity (LIVE/DEAD)” value [1, 3] of the same molecule?
**A.** heart and lung toxicity

**Q.** What about the “cardiac and lung organoid viability (LIVE/DEAD)” value [1, 4] of the same molecule?
**A.** cardiac and lung organoid viability does not decrease

**Q.** What about the “metabolism by liver organoids” value ([1]; with liver present) of the same molecule?
**A.** metabolized into the toxic drug 5-FU

**Q.** And the “brain organoid viability (LIVE/DEAD)” value ([2]; 7 days of exposure, with and without liver)?
**A.** brain organoids suffered in both groups

**Q.** What about the “cardiac and lung organoid toxicity (LIVE/DEAD)” value [2, 3] of the same molecule?
**A.** heart and lung toxicity; also recorded: increased cell death in cardiac and lung organoids

**Q.** And the “cardiac and lung organoid viability (LIVE/DEAD)” value [2, 4]?
**A.** cardiac and lung organoid viability does not decrease

**Q.** What about the “metabolism by liver organoids” value ([2]; with liver present) of the same molecule?
**A.** metabolized into the toxic drug 5-FU
